Assay results: patent publication US9211310B2, “Use of a Chinese medicine composition in preparing medicaments for treating secondary prevention of myocardial infarction” (TASLY PHARMACEUTICAL GROUP CO., LTD, priority 2010, dated 2015)

Test system: patients after acute myocardial infarction
Experiment: Life quality, Seattle Angina Questionnaire (SAQ), same clinical trial
Format: in vivo, human
Details: PP; 12 months after treatment
Description: 3508 patients who were in accordance with the diagnostic standards of AMI for 28 days to 2 years and differentiated as Qi deficiency and blood stagnation syndrome by TCM were studied. 0.5 g Chinese medicine composition prepared by the method of EXAMPLE 1 (Coded as QSYQ) was administrated half an hour after meal, 3 times per day.
There were 19 questions in the Seattle angina questionnaire (SAQ), including 5 parts: physical limitation (PL), anginal stability (AS), anginal frequency (AF), treatment satisfaction (TS) and disease perception (DP). After being given necessary explanation by doctors, the questions were answered independently by patients.
They included the overall survival time, angina pectoris score, TCM symptom score and life quality score, where angina pectoris score, TCM symptom score and life quality score were evaluated at randomization, in 1st, 3rd, 6th, 9th, 12th month after treatment and 18th month after follow-up.
All evaluation results of SAQ were described during the period of observation, and Wilcoxon rank sum test was used for inter-group comparison.
The evaluation results in the SAQ were depicted in different observations, and inter-group comparison was tested by Wilcoxon Rank-sum test.

## CC(=O)Oc1ccccc1C(=O)O [Control group, aspirine]
  9th question: Severe, patients (%): (0.21%)
  9th question: Uneffective, patients (%): (24.25%)
  10th question: Dissatisfied, patients (%): (18.68%)
  10th question: Highly satisfied, patients (%): (8.26%)
  10th question: Mostly dissatisfied, patients (%): (18.61%)
  10th question: Mostly satisfied, patients (%): (31.84%)
  10th question: Partly dissatisfied, patients (%): (22.60%)
  11th question: Continuously worried, patients (%): (1.96%)
  11th question: No worried, patients (%): (7.42%)
  11th question: Occasionally worried, patients (%): (40.59%)
  11th question: Often worried, patients (%): (7.98%)
  11th question: Seldom worried, patients (%): (42.06%)
  SAQ 4th question, 1-2 times per week: % of patients: (10.29%)
  SAQ 4th question, 1-2 times per week: number of patients: 147
  SAQ 4th question, 1-3 times per week: % of patients: (3.36%)
  SAQ 4th question, 1-3 times per week: number of patients: 48
  SAQ 4th question, <1 time per week: % of patients: (16.38%)
  SAQ 4th question, <1 time per week: number of patients: 234
  SAQ 4th question, Not used: % of patients: (67.74%)
  SAQ 4th question, Not used: number of patients: 968
  SAQ 4th question, ≧3 times per week: % of patients: (2.24%)
  SAQ 4th question, ≧3 times per week: number of patients: 32
  SAQ 4th question, ≧4 times per day: % of patients: (0.00%)
  SAQ 4th question, ≧4 times per day: number of patients: 0
  SAQ 5th question, 1-2 times per week: % of patients: (34.01%)
  SAQ 5th question, 1-2 times per week: number of patients: 486
  SAQ 5th question, 1-3 times per day: % of patients: (4.13%)
  SAQ 5th question, 1-3 times per day: number of patients: 59
  SAQ 5th question, <1 time per week: % of patients: (30.58%)
  SAQ 5th question, <1 time per week: number of patients: 437
  SAQ 5th question, No onset: % of patients: (5.67%)
  SAQ 5th question, No onset: number of patients: 81
  SAQ 5th question, ≧3 times per week: % of patients: (25.33%)
  SAQ 5th question, ≧3 times per week: number of patients: 362
  SAQ 5th question, ≧4 times per day: % of patients: (0.28%)
  SAQ 5th question, ≧4 times per day: number of patients: 4
  SAQ 6th question, Dissatisfied: % of patients: (0.07%)
  SAQ 6th question, Dissatisfied: number of patients: 1
  SAQ 6th question, Highly satisfied: % of patients: (27.78%)
  SAQ 6th question, Highly satisfied: number of patients: 397
  SAQ 6th question, Mostly dissatisfied: % of patients: (0.84%)
  SAQ 6th question, Mostly dissatisfied: number of patients: 12
  SAQ 6th question, Mostly satisfied: % of patients: (61.72%)
  SAQ 6th question, Mostly satisfied: number of patients: 882
  SAQ 6th question, Partly satisfied: % of patients: (9.59%)
  SAQ 6th question, Partly satisfied: number of patients: 137
  SAQ 7th question, Dissatisfied: % of patients: (0.07%)
  SAQ 7th question, Dissatisfied: number of patients: 1
  SAQ 7th question, Highly satisfied: % of patients: (31.25%)
  SAQ 7th question, Highly satisfied: number of patients: 446
  SAQ 7th question, Mostly dissatisfied: % of patients: (0.28%)
  SAQ 7th question, Mostly dissatisfied: number of patients: 4
  SAQ 7th question, Mostly satisfied: % of patients: (60.34%)
  SAQ 7th question, Mostly satisfied: number of patients: 861
  SAQ 7th question, Partly satisfied: % of patients: (8.06%)
  SAQ 7th question, Partly satisfied: number of patients: 115
  SAQ Question 1-1 Mildly limited, number of patients: 7
  SAQ Question 1-1 Mildly limited, percent of patients: (0.49%)
  SAQ Question 1-1 Moderately limited, number of patients: 1
  SAQ Question 1-1 Moderately limited, percent of patients: (0.07%)
  SAQ Question 1-1 Not limited, number of patients: 1371
  SAQ Question 1-1 Not limited, percent of patients: (96.28%)
  SAQ Question 1-1 Other reasons, number of patients: 4
  SAQ Question 1-1 Other reasons, percent of patients: (0.28%)
  SAQ Question 1-1 Severely limited, number of patients: 0
  SAQ Question 1-1 Severely limited, percent of patients: (0.00%)
  SAQ Question 1-1 Slightly limited, number of patients: 41
  SAQ Question 1-1 Slightly limited, percent of patients: (2.88%)
  SAQ Question 1-2 Mildly limited, number of patients: 8
  SAQ Question 1-2 Mildly limited, percent of patients: (0.56%)
  SAQ Question 1-2 Moderately limited, number of patients: 1
  SAQ Question 1-2 Moderately limited, percent of patients: (0.07%)
  SAQ Question 1-2 Not limited, number of patients: 1365
  SAQ Question 1-2 Not limited, percent of patients: (95.79%)
  SAQ Question 1-2 Other reasons, number of patients: 6
  SAQ Question 1-2 Other reasons, percent of patients: (0.42%)
  SAQ Question 1-2 Severely limited, number of patients: 0
